Laboratory results from patent publication US20040176370A1, “3,4-Dihdro-N-[[1-(3-hydroxybutyl)-4-piperidinyl]methyl]-2H-[1,3]oxazino[3,2-a]indole-10-carboxamide as 5-HT(4) receptor antagonist” (SmithKline Beecham p.l.c., priority 1998, published 2004).

How the values were obtained:
[1] = test system: DMPP-evoked contractions (nicotinic receptor agonist); assay: Selectivity test: cholinergically-mediated contractions of guinea-pig colon evoked by the nicotinic receptor agonist DMPP; format: cell-based; details: guinea-pig colon LMMP, dose response curve to DMPP
Method: To test for selectivity of action, compounds are tested for their ability to antagonise cholinergically-mediated contractions of the guinea-pic colon, evoked by the nicotinic receptor agonist, DMPP (1,1-dimethyl-4-phenyl-piperazinium iodide). For these experiments, tissues and equipment are set up as for the above, 5HT4 receptor experiments. After sensitization, non-cumulative dose response curves are constructed to DMPP. Test compounds are incubated with the tissues as above, and a second dose response curve to DMPP created. Results are given as mean pKB±SEM values for each antagonists.

5-HT4 receptor = target: T1, 5-HT4 receptor (Cavia porcellus, UniProt O70528); assay: 5-HT4 receptor antagonist activity: 5-HT-evoked contractions of guinea-pig distal colon LMMP preparations; format: cell-based; details: antagonism of 5-HT dose response curve, 45 minutes incubation
T1 construct: Longitudinal muscle-myenteric plexus (LMMP) preparations, 2-3 cm long, are obtained from the distal colon region; from tissue; host or cells: guinea-pig distal colon longitudinal muscle-myenteric plexus (LMMP)
T1 sequence (O70528 whole entry): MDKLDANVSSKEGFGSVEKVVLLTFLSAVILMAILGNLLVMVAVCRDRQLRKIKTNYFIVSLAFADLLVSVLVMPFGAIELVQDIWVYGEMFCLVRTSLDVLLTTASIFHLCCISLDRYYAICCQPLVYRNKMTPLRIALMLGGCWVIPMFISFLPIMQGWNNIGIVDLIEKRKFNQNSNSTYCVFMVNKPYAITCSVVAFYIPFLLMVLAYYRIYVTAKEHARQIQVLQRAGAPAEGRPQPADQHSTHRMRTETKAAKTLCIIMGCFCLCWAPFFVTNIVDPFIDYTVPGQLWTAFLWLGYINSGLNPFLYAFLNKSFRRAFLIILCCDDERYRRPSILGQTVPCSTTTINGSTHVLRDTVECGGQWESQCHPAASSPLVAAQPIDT
Method: 5-HT4 RECEPTOR ANTAGONIST ACTIVITY
Male Dunkin Hartley guinea-pigs, weighing 200-300 g are used. Longitudinal muscle-myenteric plexus (LMMP) preparations, 2-3 cm long, are obtained from the distal colon region. These are suspended under a 0.5 g load in isolated tissue baths containing Krebs Henseleit solution (NaCl 118 mM, KCl 4.7 mM KH2PO4 1.2 mM MgSO4 7H2O 1.2 mM, Glucose 11.1 mM, NaHCO3 25 mM, CaCl2 6H2O 2.5 mM) bubbled with 5% CO2 in O2, maintained at 37° C. and containing 1 uM Granisetron and 0.1 uM Methiothepin to block 5HT3 and 5HT1-like receptors respectively. 100 uM Pargyline is also added to the tissues at the start of the experiment. Tissues are left for 15 minutes to equilibrate and then exposed to 5-HT at 0.1 uM every 15 minutes until a uniform response is achieved. Following a half hour period for tissues to stabilise, non-cumulative dose response curves to 5-HT are constructed in all tissues. When base-lines have returned to normal, test compounds are added in the reservoirs of the tissue set-ups and washed in to the tissues. Tissues are incubated with the antagonists for 45 minutes after which a second non-cumulative dose response curve to 5-HT is constructed. […]

CC(O)CCN1CCC(CNC(=O)c2c3n(c4ccccc24)CCCO3)CC1 (racemic) [compound of formula (I), 3,4dihydro-N-[[1-(3-hydroxybutyl)-4-piperidinyl]methyl]-2H-[1,3]oxazino[3,2-α]indole-10-carboxamide]
effect on DMPP-evoked contractions [1]: did not significantly affect
Kb (5-HT4 receptor): 0.501 nM
